From PubChem BioAssay AID220 (DTP/NCI, 2004)
Values joined by “and” are separate entries in the source; they are usually repeats but may differ in a detail not shown here. Equal entries are not always repeated. Inconclusive results are not listed.

Tested on: CD8F1 mice, subcutaneous mammary adenocarcinoma, T/C%
Test: NCI In Vivo Anticancer Drug Screen. Data for tumor model Mammary Adenocarcinoma CD8F1 (subcutaneous) in CD8F1
Details: higher = larger tumour
Procedure, shortened: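 Compound-treated versus vehicle-treated mice with transplantable tumors; survival or tumor size compared as T/C.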

[1] = endpoint: median tumor weight change, dose: 100.0 mg/kg/injection, schedule: Q01DX001 (ip), vehicle: saline with Tween-80
[2] = endpoint: median tumor weight change, dose: 200.0 mg/kg/injection, schedule: Q01DX001 (ip), vehicle: saline with Tween-80
[3] = endpoint: median tumor weight change, dose: 62.5 mg/kg/injection, schedule: Q01DX001 (ip), vehicle: saline with Tween-80
[4] = endpoint: median tumor weight change, dose: 125.0 mg/kg/injection, schedule: Q01DX001 (ip), vehicle: saline with Tween-80
[5] = endpoint: median tumor weight change, dose: 500.0 mg/kg/injection, schedule: Q01DX001 (ip), vehicle: saline with Tween-80
[6] = endpoint: median tumor weight (est.), dose: 12.5 mg/kg/injection, schedule: Q07DX005 (ip), vehicle: saline with Tween-80
[7] = endpoint: median tumor weight (est.), dose: 25.0 mg/kg/injection, schedule: Q07DX005 (ip), vehicle: saline with Tween-80
[8] = endpoint: median tumor weight (est.), dose: 50.0 mg/kg/injection, schedule: Q07DX005 (ip), vehicle: saline with Tween-80
[9] = endpoint: median tumor weight (est.), dose: 100.0 mg/kg/injection, schedule: Q07DX005 (ip), vehicle: saline with Tween-80
[10] = endpoint: median tumor weight (est.), dose: 400.0 mg/kg/injection, schedule: Q07DX005 (ip), vehicle: saline with Tween-80

With CC1(C)N=C(N)N=C(N)N1c1ccc(CCCCc2ccc(S(=O)(=O)F)cc2Cl)c(Cl)c1 the T/C (endpoint: median tumor weight (est.), dose: 12.5 mg/kg/injection, schedule: Q07DX005 (ip), vehicle: other) was 95 % of control, the T/C (endpoint: median tumor weight (est.), dose: 12.5 mg/kg/injection, schedule: Q07DX005 (ip), vehicle: saline) was 42 % of control and the T/C (endpoint: median tumor weight (est.), dose: 12.5 mg/kg/injection, schedule: Q07DX005 (ip), vehicle: suspension in saline) was 114 % of control. The T/C (endpoint: median tumor weight (est.), dose: 25.0 mg/kg/injection, schedule: Q07DX005 (ip), vehicle: saline) was 60 % of control, the T/C (endpoint: median tumor weight (est.), dose: 25.0 mg/kg/injection, schedule: Q07DX005 (ip), vehicle: suspension in saline) was 105 % of control and the T/C (endpoint: median tumor weight (est.), dose: 50.0 mg/kg/injection, schedule: Q07DX005 (ip), vehicle: saline) was 39 % of control. The T/C (endpoint: median tumor weight (est.), dose: 50.0 mg/kg/injection, schedule: Q07DX005 (ip), vehicle: suspension in saline) was 46 % of control, the T/C (endpoint: median tumor weight (est.), dose: 100.0 mg/kg/injection, schedule: Q07DX005 (ip), vehicle: saline) was 20 % of control and the T/C (endpoint: median tumor weight (est.), dose: 100.0 mg/kg/injection, schedule: Q07DX005 (ip), vehicle: suspension in saline) was 26 % of control. The T/C (endpoint: median tumor weight (est.), dose: 200.0 mg/kg/injection, schedule: Q07DX005 (ip), vehicle: saline) was 5 % of control, the T/C (endpoint: median tumor weight (est.), dose: 200.0 mg/kg/injection, schedule: Q07DX005 (ip), vehicle: suspension in saline) was 2 % of control and the T/C (endpoint: median tumor weight change, dose: 90.0 mg/kg/injection, schedule: Q01DX001 (ip), vehicle: saline with Tween-80) was 50 % of control. The T/C [1] was 53 % of control, the T/C (endpoint: median tumor weight change, dose: 112.5 mg/kg/injection, schedule: Q01DX001 (ip), vehicle: saline with Tween-80) was 84 % of control and the T/C (endpoint: median tumor weight change, dose: 133.0 mg/kg/injection, schedule: Q01DX001 (ip), vehicle: saline with Tween-80) was 64 % of control. For the same compound, the T/C [2] was 12 % of control and 25 % of control, the T/C (endpoint: median tumor weight change, dose: 225.0 mg/kg/injection, schedule: Q01DX001 (ip), vehicle: saline with Tween-80) was 49 % of control and the T/C (endpoint: median tumor weight change, dose: 300.0 mg/kg/injection, schedule: Q01DX001 (ip), vehicle: saline with Tween-80) was 27 % of control. The T/C (endpoint: median tumor weight change, dose: 450.0 mg/kg/injection, schedule: Q01DX001 (ip), vehicle: saline with Tween-80) was 12 % of control.
In the case of O=C1N[C@H]2[C@H](O)[C@H](O)[C@@H](O)[C@H](O)[C@@H]2c2cc3c(c(O)c21)OCO3, the T/C (endpoint: median tumor weight change, dose: 1.25 mg/kg/injection, schedule: Q01DX005 (ip), vehicle: saline + alcohol) is reported as 110 % of control, the T/C (endpoint: median tumor weight change, dose: 2.5 mg/kg/injection, schedule: Q01DX005 (ip), vehicle: saline + alcohol) is reported as 66 % of control and the T/C (endpoint: median tumor weight change, dose: 5.0 mg/kg/injection, schedule: Q01DX005 (ip), vehicle: saline + alcohol) is reported as 48 % of control.
With OCC1OC(n2cnc3c2NC=NC[C@H]3O)CC1O (some centres not stated) the T/C (endpoint: median tumor weight (est.), dose: 0.25 mg/kg/injection, schedule: Q07DX005 (ip), vehicle: water) was 104 % of control, the T/C (endpoint: median tumor weight (est.), dose: 0.5 mg/kg/injection, schedule: Q07DX005 (ip), vehicle: water) was 108 % of control and the T/C (endpoint: median tumor weight (est.), dose: 2.0 mg/kg/injection, schedule: Q07DX005 (ip), vehicle: water) was 63 % of control. The T/C (endpoint: median tumor weight (est.), dose: 4.0 mg/kg/injection, schedule: Q07DX005 (ip), vehicle: water) was 51 % of control and the T/C (endpoint: median tumor weight (est.), dose: 8.0 mg/kg/injection, schedule: Q07DX005 (ip), vehicle: water) was 60 % of control.
In the case of CC(=O)CC(C)=O.CC(=O)CC(C)=O.O=N[O-].O=N[O-].[Co], the T/C [3] is reported as 96 % of control and the T/C [4] is reported as 38 % of control.
In the case of COc1cccc2c1C(=O)c1c(O)c3c(c(O)c1C2=O)C[C@@](O)(C(=O)CO)C[C@@H]3OC1CC(N)CC(C)O1 (some centres not stated), the T/C (endpoint: median tumor weight change, dose: 1.8 mg/kg/injection, schedule: Q01DX001 (ip), vehicle: water) is reported as 187 % of control and the T/C (endpoint: median tumor weight change, dose: 3.75 mg/kg/injection, schedule: Q01DX001 (ip), vehicle: water) is reported as 94 % of control.
CCCCCCOC(CN(C)C)C(Cl)(Cl)Cl (configuration not stated) was tested, and the T/C [1] was 53 % of control, the T/C [4] was 173 % of control and the T/C [2] was 68 % of control. For the same compound, the T/C (endpoint: median tumor weight change, dose: 250.0 mg/kg/injection, schedule: Q01DX001 (ip), vehicle: saline with Tween-80) was 81 % of control, the T/C (endpoint: median tumor weight change, dose: 400.0 mg/kg/injection, schedule: Q01DX001 (ip), vehicle: saline with Tween-80) was 93 % of control and the T/C [5] was 72 % of control. The T/C (endpoint: median tumor weight change, dose: 1000.0 mg/kg/injection, schedule: Q01DX001 (ip), vehicle: saline with Tween-80) was 79 % of control.
For CCOC(=O)c1ccc(NC(=O)Nc2nccs2)cc1, the T/C [6] was 150 % of control, the T/C [7] was 46 % of control and the T/C [8] was 60 % of control. The T/C [9] was 96 % of control, the T/C (endpoint: median tumor weight (est.), dose: 200.0 mg/kg/injection, schedule: Q07DX005 (ip), vehicle: saline with Tween-80) was 49 % of control and the T/C [10] was 43 % of control.
COc1cc(OC)c(NC(=O)ON2C(=O)c3ccccc3C2=O)cc1Cl was tested, and the T/C (endpoint: median tumor weight change, dose: 31.25 mg/kg/injection, schedule: Q01DX001 (ip), vehicle: saline with Tween-80) was 62 % of control, the T/C [3] was 81 % of control and the T/C [4] was 92 % of control. The T/C [5] was 26 % of control.
S=C=NCCc1ccccc1 was tested, and the T/C [7] was 120 % of control, the T/C [8] was 111 % of control and the T/C [9] was 53 % of control.
With CCOC(=O)C(CC(C)C)NC(=O)C(Cc1ccc(N(CCCl)CCCl)cc1)NC(C)=O (configuration not stated) the T/C (endpoint: median tumor weight (est.), dose: 8.0 mg/kg/injection, schedule: Q07DX005 (ip), vehicle: saline with Tween-80) was 112 % of control, the T/C (endpoint: median tumor weight (est.), dose: 32.0 mg/kg/injection, schedule: Q07DX005 (ip), vehicle: saline with Tween-80) was 49 % of control and 58 % of control and the T/C (endpoint: median tumor weight (est.), dose: 64.0 mg/kg/injection, schedule: Q07DX005 (ip), vehicle: saline with Tween-80) was 9 % of control.
For N#Cc1nc(C#N)c(Sc2ccccc2)c(Sc2ccccc2)c1Sc1ccccc1, the T/C (endpoint: median tumor weight (est.), dose: 6.25 mg/kg/injection, schedule: Q07DX005 (ip), vehicle: saline with Tween-80) was 165 % of control and the T/C [6] was 113 % of control.
In the case of C(COCCOCC1CO1)OCCOCC1CO1 (configuration not stated), the T/C [6] is reported as 69 % of control, the T/C [7] is reported as 91 % of control and the T/C [8] is reported as 68 % of control. For the same compound, the T/C [9] was 110 % of control and the T/C [10] was 112 % of control.
In the case of COC1C(C)OC(OC2CC(C)(O)Cc3cc4c(c(O)c32)C(=O)c2c(O)cc3c(c2C4=O)OC2OC3(C)C(O)C(N(C)C)C2O)C(OC)C1(C)OC (configuration not stated), the T/C (endpoint: median tumor weight (est.), dose: 2.5 mg/kg/injection, schedule: Q07DX005 (ip), vehicle: other) is reported as 161 % of control, the T/C (endpoint: median tumor weight (est.), dose: 5.0 mg/kg/injection, schedule: Q07DX005 (ip), vehicle: other) is reported as 94 % of control and the T/C (endpoint: median tumor weight (est.), dose: 10.0 mg/kg/injection, schedule: Q07DX005 (ip), vehicle: other) is reported as 57 % of control.
With CC1=C[S+](c2ccccc2)c2cccc3cc4ccccc4c1c23 (configuration not stated) the T/C (endpoint: median tumor weight change, dose: 0.62 mg/kg/injection, schedule: Q01DX001 (ip), vehicle: saline with Tween-80) was 103 % of control, the T/C (endpoint: median tumor weight change, dose: 5.0 mg/kg/injection, schedule: Q01DX001 (ip), vehicle: saline with Tween-80) was 98 % of control and the T/C (endpoint: median tumor weight change, dose: 10.0 mg/kg/injection, schedule: Q01DX001 (ip), vehicle: saline with Tween-80) was 40 % of control and 59 % of control.
